{"source": "ChEMBL document CHEMBL1201862", "about": "“PubChem BioAssay data set” (2004)", "key": {"CAAX prenyl protease 2 [1]": {"biological_target": "CAAX prenyl protease 2 (Saccharomyces cerevisiae S288c, UniProt Q03530)", "sequence (Q03530 whole entry)": "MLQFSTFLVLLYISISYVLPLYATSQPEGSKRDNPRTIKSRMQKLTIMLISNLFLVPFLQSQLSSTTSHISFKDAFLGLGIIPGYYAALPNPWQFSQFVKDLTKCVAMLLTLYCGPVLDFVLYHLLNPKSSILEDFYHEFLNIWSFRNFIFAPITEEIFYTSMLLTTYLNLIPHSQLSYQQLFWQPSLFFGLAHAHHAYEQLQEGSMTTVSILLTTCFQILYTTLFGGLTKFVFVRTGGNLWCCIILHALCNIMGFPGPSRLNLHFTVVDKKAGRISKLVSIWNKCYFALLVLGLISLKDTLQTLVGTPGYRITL", "assay_type": "biochemical"}, "Trypsin": {"biological_target": "Trypsin (Sus scrofa, UniProt P00761)", "sequence (P00761 whole entry)": "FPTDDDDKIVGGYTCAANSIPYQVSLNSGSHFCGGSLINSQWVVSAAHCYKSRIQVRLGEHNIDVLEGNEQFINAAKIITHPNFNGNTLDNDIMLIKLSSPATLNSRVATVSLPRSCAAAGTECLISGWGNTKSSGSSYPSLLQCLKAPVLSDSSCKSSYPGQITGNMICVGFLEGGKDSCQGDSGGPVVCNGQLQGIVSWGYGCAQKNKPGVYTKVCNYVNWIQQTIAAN", "experiment": "porcine trypsin inhibitors, dose response, selectivity assay for Rce1 protease inhibitor project, biochemical, quenched peptide fluorescence, cherry-pick (AID 488789)"}, "CAAX prenyl protease 2 [2]": {"biological_target": "CAAX prenyl protease 2 (Homo sapiens, UniProt Q9Y256)", "experiment": "human Rce1 protease inhibitors, dose response, biochemical, yeast membranes, quenched-peptide fluorescence, cherry-pick (AID 588849)"}, "[3]": {"biological_target": "T1, Serine/threonine-protein phosphatase (Candida dubliniensis (strain CD36 / CBS 7987 / NCPF 3949 / NRRLY-17841) (Yeast), UniProt B9W6M3)", "T1 sequence (B9W6M3 whole entry)": "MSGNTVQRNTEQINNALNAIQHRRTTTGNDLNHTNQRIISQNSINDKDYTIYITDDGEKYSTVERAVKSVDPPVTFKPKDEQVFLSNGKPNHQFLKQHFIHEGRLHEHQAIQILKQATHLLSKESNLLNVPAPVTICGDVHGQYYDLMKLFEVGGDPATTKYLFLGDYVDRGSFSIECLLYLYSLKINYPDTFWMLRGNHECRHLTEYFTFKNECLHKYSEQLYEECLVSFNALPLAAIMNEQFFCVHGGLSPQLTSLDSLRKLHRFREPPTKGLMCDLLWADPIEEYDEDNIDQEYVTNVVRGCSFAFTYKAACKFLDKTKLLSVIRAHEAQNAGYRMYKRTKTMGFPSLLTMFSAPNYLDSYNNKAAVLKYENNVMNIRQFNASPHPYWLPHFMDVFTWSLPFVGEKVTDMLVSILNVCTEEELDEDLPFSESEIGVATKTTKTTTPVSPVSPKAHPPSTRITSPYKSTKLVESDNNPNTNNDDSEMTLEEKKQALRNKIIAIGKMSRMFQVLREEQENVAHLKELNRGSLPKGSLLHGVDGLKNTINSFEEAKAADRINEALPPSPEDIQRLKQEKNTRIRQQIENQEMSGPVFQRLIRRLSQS", "experiment": "calcineurin pathway inhibitors in yeast reporter, dose response, S. cerevisiae, CDRE-lacZ, luminescence, secondary (AID 2388);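 note: yeast reporter cells carrying a calcineurin-responsive lacZ construct stimulated with calcium chloride; luminescent beta-galactosidase reporter signal in whole cells rather than isolated phosphatase activity; potency for inhibition where a drop in reporter signal means calcineurin blockade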", "assay_type": "functional, cell-based"}, "A-375": {"tested_on": "A-375", "experiment": "A375 melanoma cell viability reduction, dose response, counter-screen for MITF modulator project, cherry-pick samples, set 2 (AID 540335)", "assay_type": "functional, cell-based", "conditions": "Homo sapiens"}, "[4]": {"experiment": "Counterscreen for activators of the function of SWI/SNF related, matrix associated, actin dependent regulator of chromatin, subfamily a, member 2 (SMARCA2, BRM): Luminescence-based cell-based high throughput dose response assay to identify non-selective compounds using the VP16 reporter assay.", "assay_type": "functional"}, "[5]": {"experiment": "cytotoxicity toward NIH3T3 fibroblasts, dose response, counter-screen, cell-based, ATP luminescence, mouse fibroblasts (AID 2010);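 note: cells exposed to compound for about 90 hours before reading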", "assay_type": "functional"}, "[6]": {"experiment": "inhibitors of intracellular T. cruzi replication, confirmation, NIH3T3 host cells, beta-gal luminescence (AID 2044);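 note: luminescent beta-galactosidase reporter signal from transgenic T. cruzi replicating inside host cells; inhibitors lower the luminescence signal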", "assay_type": "functional, cell-based"}, "[7]": {"biological_target": "T2, DNA repair protein RAD52 homolog (Homo sapiens, UniProt P43351)", "T2 sequence (P43351 whole entry)": "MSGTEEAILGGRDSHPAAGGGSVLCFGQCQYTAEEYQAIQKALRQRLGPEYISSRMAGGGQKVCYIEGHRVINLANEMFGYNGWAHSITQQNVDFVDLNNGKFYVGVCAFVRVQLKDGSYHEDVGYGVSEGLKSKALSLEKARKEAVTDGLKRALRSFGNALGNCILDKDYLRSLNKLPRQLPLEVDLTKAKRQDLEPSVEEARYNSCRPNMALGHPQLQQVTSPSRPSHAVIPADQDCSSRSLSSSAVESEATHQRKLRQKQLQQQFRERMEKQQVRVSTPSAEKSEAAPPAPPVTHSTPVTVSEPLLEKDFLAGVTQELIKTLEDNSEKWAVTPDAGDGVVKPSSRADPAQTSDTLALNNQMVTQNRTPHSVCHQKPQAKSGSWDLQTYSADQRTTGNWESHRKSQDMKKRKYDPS", "assay_type": "functional, biochemical"}, "[8]": {"biological_target": "SWI/SNF-related matrix-associated actin-dependent regulator of chromatin subfamily A member 2 (Homo sapiens, UniProt P51531)", "sequence (P51531 whole entry)": "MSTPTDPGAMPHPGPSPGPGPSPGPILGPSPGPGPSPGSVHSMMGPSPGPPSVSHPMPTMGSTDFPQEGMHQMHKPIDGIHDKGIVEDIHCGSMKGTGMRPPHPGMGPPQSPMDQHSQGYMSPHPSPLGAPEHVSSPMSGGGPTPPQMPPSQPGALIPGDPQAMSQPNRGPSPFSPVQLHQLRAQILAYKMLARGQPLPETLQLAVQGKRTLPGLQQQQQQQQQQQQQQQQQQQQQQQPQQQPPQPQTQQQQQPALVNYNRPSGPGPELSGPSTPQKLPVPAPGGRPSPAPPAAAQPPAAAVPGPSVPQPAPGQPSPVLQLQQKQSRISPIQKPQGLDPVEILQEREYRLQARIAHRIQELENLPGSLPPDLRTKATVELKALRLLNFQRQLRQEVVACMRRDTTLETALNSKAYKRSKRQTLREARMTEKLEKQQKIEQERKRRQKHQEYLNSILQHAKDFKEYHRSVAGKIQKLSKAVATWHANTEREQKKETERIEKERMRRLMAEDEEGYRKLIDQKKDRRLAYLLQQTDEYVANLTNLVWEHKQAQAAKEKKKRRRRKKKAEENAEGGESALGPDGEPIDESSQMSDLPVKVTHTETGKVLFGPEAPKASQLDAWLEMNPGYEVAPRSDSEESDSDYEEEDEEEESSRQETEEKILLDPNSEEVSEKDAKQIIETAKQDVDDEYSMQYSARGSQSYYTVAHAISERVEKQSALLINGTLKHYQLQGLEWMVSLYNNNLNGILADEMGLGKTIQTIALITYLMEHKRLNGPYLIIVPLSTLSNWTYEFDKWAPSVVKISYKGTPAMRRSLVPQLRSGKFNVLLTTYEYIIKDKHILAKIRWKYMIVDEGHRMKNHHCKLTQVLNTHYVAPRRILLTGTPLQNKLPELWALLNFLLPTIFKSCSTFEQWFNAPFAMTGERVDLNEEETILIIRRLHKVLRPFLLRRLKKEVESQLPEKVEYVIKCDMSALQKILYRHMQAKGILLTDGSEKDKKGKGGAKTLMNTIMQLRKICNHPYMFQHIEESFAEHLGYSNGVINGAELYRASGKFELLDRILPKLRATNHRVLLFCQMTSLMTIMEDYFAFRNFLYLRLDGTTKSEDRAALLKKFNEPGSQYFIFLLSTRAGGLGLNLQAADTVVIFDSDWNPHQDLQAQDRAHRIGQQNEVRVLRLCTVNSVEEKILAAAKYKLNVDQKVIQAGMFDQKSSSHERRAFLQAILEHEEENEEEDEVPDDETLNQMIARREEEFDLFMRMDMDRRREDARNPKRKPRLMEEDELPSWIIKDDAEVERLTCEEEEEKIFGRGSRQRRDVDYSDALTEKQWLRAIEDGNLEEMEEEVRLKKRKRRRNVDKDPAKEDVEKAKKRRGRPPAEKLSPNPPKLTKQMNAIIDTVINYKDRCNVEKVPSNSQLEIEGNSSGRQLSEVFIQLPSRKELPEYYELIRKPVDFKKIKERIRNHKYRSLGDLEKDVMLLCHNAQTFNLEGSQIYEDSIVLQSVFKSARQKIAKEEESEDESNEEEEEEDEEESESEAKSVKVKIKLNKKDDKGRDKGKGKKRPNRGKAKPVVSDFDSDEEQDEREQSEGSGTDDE", "experiment": "Luminescence-based cell-based high throughput dose response assay to identify activators of the function of SWI/SNF related, matrix associated, actin dependent regulator of chromatin, subfamily a, member 2 (SMARCA2, BRM).", "assay_type": "functional"}, "INS1": {"tested_on": "INS1", "experiment": "beta cell apoptosis inhibitors, cytokine rescue, dose response, luminescence, retest (AID 449756);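 note: cell death triggered by IL-1 beta plus TNF-alpha plus IFN-gamma mixture; protective hits raise ATP signal compared with cytokine alone wells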", "assay_type": "functional, cell-based", "conditions": "Rattus norvegicus"}, "[9]": {"experiment": "C. albicans growth with fluconazole, confirmation, fluorescence, retest (AID 2467)", "assay_type": "functional, cell-based"}, "[10]": {"biological_target": "ATP-dependent molecular chaperone HSP82 (Candida albicans (strain WO-1) (Yeast), UniProt C4YTQ8)", "sequence (C4YTQ8 whole entry)": "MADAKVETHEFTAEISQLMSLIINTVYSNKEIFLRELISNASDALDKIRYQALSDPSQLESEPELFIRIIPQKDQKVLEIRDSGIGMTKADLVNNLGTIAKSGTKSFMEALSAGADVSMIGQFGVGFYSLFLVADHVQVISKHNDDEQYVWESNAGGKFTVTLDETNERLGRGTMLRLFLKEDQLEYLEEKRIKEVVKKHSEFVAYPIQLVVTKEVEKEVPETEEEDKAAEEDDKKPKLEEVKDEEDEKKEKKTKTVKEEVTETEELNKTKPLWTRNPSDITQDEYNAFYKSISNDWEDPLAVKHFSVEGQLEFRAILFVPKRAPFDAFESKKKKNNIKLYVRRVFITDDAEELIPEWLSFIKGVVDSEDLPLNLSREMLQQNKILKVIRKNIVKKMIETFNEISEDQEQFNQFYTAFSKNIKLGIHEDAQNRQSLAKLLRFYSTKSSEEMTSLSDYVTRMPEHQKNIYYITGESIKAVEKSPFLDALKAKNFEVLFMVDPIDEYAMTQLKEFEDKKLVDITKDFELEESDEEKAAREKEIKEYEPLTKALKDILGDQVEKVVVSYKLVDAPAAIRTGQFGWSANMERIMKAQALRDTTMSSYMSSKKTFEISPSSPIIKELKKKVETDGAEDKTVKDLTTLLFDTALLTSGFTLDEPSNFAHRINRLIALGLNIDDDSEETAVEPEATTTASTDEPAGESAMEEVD", "experiment": "loss of DOC-induced GRE-beta-galactosidase reporter signal, dose response, Hsp90 inhibitor project, S. cerevisiae, luminescence (AID 2400);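 note: beta-galactosidase luminescence from glucocorticoid response element reporter as proxy for Hsp90 function; inhibitor potency where signal loss means Hsp90 inhibition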", "assay_type": "functional, cell-based"}, "[11]": {"biological_target": "T3, Microphthalmia-associated transcription factor (Homo sapiens, UniProt O75030)", "T3 sequence (O75030 whole entry)": "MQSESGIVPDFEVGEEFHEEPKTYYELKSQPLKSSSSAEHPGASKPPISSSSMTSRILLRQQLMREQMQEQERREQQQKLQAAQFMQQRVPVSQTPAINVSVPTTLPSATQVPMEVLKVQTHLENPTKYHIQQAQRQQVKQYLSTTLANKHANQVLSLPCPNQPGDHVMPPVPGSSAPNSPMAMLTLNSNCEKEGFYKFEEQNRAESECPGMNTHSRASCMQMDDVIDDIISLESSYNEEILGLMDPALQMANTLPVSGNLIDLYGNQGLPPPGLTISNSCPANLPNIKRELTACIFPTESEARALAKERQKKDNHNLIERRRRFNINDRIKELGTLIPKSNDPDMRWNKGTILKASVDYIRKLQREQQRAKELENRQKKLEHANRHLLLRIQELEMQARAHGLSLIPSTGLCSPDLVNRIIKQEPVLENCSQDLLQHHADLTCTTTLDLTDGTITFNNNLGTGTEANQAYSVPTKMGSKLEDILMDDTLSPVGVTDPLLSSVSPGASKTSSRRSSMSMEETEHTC", "experiment": "TRPM1 promoter luciferase signal decrease, dose response, MITF inhibitor project, cell-based, SK-MEL-5, cherry-picked, set 3 (AID 493073)", "assay_type": "functional"}, "[12]": {"experiment": "NIH-3T3 fibroblast cytotoxicity, dose response, cytotoxicity control, cell-based, fluorescence, Alamar Blue, secondary assay (AID 2327);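 note: NIH-3T3 mouse fibroblasts cultured with fluconazole at 8 µg/mL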", "assay_type": "functional"}, "Escherichia coli": {"tested_on": "Escherichia coli", "experiment": "microbe, parasite or virus in culture"}, "Estrogen receptor": {"biological_target": "T4, Estrogen receptor (Homo sapiens, UniProt P03372)", "T4 sequence (P03372 whole entry)": "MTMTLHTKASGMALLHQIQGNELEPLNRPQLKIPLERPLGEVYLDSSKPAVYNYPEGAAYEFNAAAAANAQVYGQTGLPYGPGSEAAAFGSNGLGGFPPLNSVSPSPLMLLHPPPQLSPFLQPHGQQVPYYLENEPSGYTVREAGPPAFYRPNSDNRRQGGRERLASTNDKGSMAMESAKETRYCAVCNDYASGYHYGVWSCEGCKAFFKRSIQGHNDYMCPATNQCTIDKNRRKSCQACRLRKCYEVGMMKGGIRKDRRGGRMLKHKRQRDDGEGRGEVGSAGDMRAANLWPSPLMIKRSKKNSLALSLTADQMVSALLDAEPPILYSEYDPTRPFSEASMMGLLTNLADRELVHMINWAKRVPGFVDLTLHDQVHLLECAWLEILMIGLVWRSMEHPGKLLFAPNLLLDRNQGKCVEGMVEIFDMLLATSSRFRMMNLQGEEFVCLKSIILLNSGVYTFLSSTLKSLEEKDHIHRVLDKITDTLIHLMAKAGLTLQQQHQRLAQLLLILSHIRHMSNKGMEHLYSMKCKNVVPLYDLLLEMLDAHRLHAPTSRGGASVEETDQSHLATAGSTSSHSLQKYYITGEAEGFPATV"}, "[13]": {"biological_target": "Beta-2 adrenergic receptor (Homo sapiens, UniProt P07550)", "sequence (P07550 whole entry)": "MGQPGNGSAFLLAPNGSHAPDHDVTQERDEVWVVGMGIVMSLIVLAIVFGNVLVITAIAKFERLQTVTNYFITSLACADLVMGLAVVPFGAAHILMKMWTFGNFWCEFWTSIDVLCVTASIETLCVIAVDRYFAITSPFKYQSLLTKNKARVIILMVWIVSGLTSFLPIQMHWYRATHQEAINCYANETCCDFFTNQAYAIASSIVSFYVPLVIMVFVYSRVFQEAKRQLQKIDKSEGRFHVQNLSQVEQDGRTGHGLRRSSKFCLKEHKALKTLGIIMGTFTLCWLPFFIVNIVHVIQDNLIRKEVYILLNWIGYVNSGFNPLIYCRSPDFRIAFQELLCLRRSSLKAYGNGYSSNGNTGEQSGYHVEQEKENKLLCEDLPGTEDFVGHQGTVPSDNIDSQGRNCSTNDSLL", "experiment": "beta2AR agonists driving receptor internalization, dose response, cell-based, FAP fluorogen, flow cytometry, cherry pick 1 (AID 588763)", "assay_type": "functional"}, "Genome polyprotein": {"biological_target": "Genome polyprotein (dengue virus type 2, UniProt P29990)", "experiment": "Dengue-2 NS5 methyltransferase inhibitors, primary screen, biochemical, confirmation dose response (AID 588689)", "assay_type": "functional"}, "Vero": {"tested_on": "Vero", "experiment": "Vero cell cytotoxicity, cytotoxicity control for flavivirus capping enzyme inhibitors (AID 588742)", "assay_type": "functional", "conditions": "Chlorocebus sabaeus"}, "HEK293 [14]": {"tested_on": "HEK293", "experiment": "cells", "conditions": "Homo sapiens"}, "[15]": {"experiment": "THP-1 cell cytotoxicity, dose response, cytotoxicity control for Vif-APOBEC3G degradation inhibitor project, THP-1 cells (AID 1117359)", "assay_type": "functional", "conditions": "Human immunodeficiency virus 1, THP-1"}, "HEK293 [16]": {"tested_on": "HEK293", "experiment": "cells", "conditions": "Homo sapiens", "remark": "listed apart in the source"}, "Aurora kinase B": {"biological_target": "Aurora kinase B (Homo sapiens, UniProt Q96GD4)", "sequence (Q96GD4 whole entry)": "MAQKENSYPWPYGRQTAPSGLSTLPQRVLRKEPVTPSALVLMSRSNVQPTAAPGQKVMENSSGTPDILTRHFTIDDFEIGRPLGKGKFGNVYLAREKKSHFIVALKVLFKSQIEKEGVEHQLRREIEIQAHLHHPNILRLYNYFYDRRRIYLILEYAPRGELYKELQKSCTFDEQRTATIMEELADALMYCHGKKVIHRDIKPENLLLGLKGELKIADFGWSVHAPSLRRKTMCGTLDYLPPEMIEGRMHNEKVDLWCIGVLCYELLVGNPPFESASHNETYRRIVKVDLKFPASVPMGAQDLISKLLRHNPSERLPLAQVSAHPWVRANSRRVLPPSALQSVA", "assay_type": "functional"}, "[17]": {"biological_target": "Vascular endothelial growth factor receptor 2 (Homo sapiens, UniProt P35968)", "sequence (P35968 whole entry)": "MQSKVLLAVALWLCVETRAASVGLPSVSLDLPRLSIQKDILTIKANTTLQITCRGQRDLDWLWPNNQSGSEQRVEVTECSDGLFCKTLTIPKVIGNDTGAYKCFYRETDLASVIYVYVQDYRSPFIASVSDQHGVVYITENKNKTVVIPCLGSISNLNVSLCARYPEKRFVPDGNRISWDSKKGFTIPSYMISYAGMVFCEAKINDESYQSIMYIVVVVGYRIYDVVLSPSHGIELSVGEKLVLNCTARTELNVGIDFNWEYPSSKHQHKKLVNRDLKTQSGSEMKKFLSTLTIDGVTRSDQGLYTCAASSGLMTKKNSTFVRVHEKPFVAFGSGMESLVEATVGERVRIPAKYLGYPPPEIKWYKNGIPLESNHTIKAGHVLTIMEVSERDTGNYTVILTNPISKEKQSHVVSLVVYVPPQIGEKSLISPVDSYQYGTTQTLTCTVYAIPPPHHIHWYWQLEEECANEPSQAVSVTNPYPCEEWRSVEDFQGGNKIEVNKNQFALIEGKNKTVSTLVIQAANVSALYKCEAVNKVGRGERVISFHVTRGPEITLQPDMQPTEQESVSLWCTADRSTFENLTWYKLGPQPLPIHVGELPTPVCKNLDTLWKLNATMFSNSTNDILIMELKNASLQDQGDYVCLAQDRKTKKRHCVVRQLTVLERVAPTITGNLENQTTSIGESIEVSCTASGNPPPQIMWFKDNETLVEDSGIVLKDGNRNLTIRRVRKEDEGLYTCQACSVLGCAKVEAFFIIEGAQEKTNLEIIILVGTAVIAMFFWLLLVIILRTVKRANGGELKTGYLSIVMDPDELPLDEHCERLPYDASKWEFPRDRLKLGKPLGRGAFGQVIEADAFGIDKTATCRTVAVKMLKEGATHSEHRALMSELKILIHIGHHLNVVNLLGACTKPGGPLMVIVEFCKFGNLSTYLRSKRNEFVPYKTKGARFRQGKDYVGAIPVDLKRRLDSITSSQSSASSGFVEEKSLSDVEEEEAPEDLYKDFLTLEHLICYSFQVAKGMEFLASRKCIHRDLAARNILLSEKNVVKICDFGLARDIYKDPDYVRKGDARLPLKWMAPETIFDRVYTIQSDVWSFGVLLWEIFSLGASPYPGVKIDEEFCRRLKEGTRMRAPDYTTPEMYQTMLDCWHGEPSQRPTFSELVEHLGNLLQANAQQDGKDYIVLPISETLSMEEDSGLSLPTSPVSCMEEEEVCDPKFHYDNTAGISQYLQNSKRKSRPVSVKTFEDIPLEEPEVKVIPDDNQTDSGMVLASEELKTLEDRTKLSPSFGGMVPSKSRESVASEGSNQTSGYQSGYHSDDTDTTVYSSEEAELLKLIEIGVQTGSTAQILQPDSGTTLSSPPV", "assay_type": "functional"}, "Aurora kinase A": {"biological_target": "T5, Aurora kinase A (Homo sapiens, UniProt O14965)", "T5 sequence (O14965 whole entry)": "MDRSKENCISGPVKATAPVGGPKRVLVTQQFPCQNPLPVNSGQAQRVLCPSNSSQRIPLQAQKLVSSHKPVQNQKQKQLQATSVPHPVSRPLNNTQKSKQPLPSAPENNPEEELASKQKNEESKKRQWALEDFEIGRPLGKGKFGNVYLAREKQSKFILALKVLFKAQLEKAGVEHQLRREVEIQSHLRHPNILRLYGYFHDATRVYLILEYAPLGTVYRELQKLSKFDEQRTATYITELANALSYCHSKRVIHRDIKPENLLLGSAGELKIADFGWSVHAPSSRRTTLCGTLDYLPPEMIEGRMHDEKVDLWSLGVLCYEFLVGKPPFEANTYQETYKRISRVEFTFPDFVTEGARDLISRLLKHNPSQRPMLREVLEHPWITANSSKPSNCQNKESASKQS", "assay_type": "functional"}, "[18]": {"biological_target": "Inhibitor of nuclear factor kappa-B kinase subunit epsilon (Homo sapiens, UniProt Q14164)", "experiment": "Navigating the Kinome. Panel member name: IKBKE", "assay_type": "functional"}}, "note": "Calls of active or inactive are those of the source."}
{"smiles": "COc1ccc(C[C@H]2c3cc(O)c(OC)cc3CC[N+]2(C)[O-])cc1O", "note": "(some centres undefined)", "values": [{"measurement": "AC50", "setting": "CAAX prenyl protease 2 [1]", "value": "7.82 µM (active)"}, {"measurement": "AC50", "setting": "Trypsin", "value": "13.9 µM (active)"}, {"measurement": "AC50", "setting": "CAAX prenyl protease 2 [2]", "value": "2.8 µM (active)"}]}
{"smiles": "CC(=O)Nc1ccc(Nc2c3ccccc3nc3ccccc23)cc1", "values": [{"measurement": "EC50", "setting": "[3]", "value": "> 180 µM (inactive)"}, {"measurement": "AC50", "setting": "A-375", "value": "13.8 µM (active)"}, {"measurement": "EC50", "setting": "[4]", "value": "> 91.1 µM (inactive)"}, {"measurement": "EC50", "setting": "[5]", "value": "0.536 µM (active)"}, {"measurement": "EC50", "setting": "[6]", "value": "0.556 µM (active)"}, {"measurement": "AC50", "setting": "[7]", "value": "2.21 µM (active)"}, {"measurement": "EC50", "setting": "[8]", "value": "> 91.1 µM (inactive)"}, {"measurement": "AC50", "setting": "INS1", "value": "3.71 µM (active)"}, {"measurement": "EC50", "setting": "[9]", "value": "1.32 µM (active)"}, {"measurement": "EC50", "setting": "[10]", "value": "> 150 µM (inactive)"}, {"measurement": "AC50", "setting": "[11]", "value": "4.9 µM (active)"}, {"measurement": "EC50", "setting": "[12]", "value": "10.5 µM (active)"}]}
{"smiles": "Cc1occc1C(=O)NCc1cccc(CNC(=O)c2ccoc2C)c1", "values": [{"measurement": "AC50", "setting": "Escherichia coli", "value": "21.6 µM (active)"}, {"measurement": "IC50", "setting": "Estrogen receptor", "value": "19.7 µM (active)"}]}
{"smiles": "Cc1ccc(NC(=O)c2ccc(N3CCOCC3)c([N+](=O)[O-])c2)cc1S(=O)(=O)N1CCOCC1", "values": [{"measurement": "EC50", "setting": "[13]", "value": "10.1 µM (inactive)"}]}
{"smiles": "Cn1cccc1/C=C1\\C(=O)NC(=O)N(Cc2ccccc2)C1=O", "values": [{"measurement": "IC50", "setting": "Genome polyprotein", "value": "23.4 µM (active)"}, {"measurement": "CC50", "setting": "Vero", "value": "> 40 µM (active)"}, {"measurement": "EC50", "setting": "HEK293 [14]", "value": "> 59.6 µM (inactive)"}, {"measurement": "CC50", "setting": "[15]", "value": "> 40 µM (active)"}, {"measurement": "EC50", "setting": "HEK293 [16]", "value": "> 59.6 µM (inactive)"}]}
{"smiles": "Cc1n[nH]c2c1c(=O)n(C)c1ccccc21", "values": [{"measurement": "Ki", "setting": "Aurora kinase B", "value": "0.0501 µM (active)"}, {"measurement": "Ki", "setting": "[17]", "value": "0.631 µM (active)"}, {"measurement": "Ki", "setting": "Aurora kinase A", "value": "1 µM (active)"}]}
{"smiles": "Cc1cccc(NC(=O)Nc2ccc(-c3nn(C)c4ncnc(N)c34)cc2)c1", "values": [{"measurement": "Ki", "setting": "Aurora kinase B", "value": "0.00158 µM (active)"}, {"measurement": "Ki", "setting": "Aurora kinase A", "value": "0.0398 µM (active)"}, {"measurement": "Ki", "setting": "[18]", "value": "0.501 µM (active)"}]}
